Patent publication US20230116113A1, “USE OF COMPOUNDS THAT ARE ABLE TO CROSS-LINK THE EXTRACELLULAR MATRIX FOR PREVENTING OR INHIBITING THE MIGRATION OF CANCER CELLS” (CAMBRIDGE ENTERPRISE LIMITED, priority 2020, published 2023)
Entries after “also recorded” stand apart in the source; their conditions may differ.

Columns and labels:
U87 GBM cells [1] = experiment: Migration and proliferation of cells from U87 tumour spheroids in 3D hyaluronic acid-serum model brain ECM; type: cell-based; conditions: 5, 10 and 20 mM trientine mixed into 2 wt % HA-serum model ECM; days 1, 3, 6, 10
Excerpt: We first established a 3D extracellular matrix (ECM) model for brain consisting of hyaluronic acid mixed with serum proteins to support GBM cell metabolism. We then used tumour spheroids, cultured from U87 GBM cell line cells, as 3D tumour models that we implanted into the hyaluronic acid-serum model brain ECM.
We fabricated hyaluronic acid-serum model brain ECMs containing 2 wt %, 3.5 wt % and 5 wt % hyaluronic acid to represent low, normal and high hyaluronic acid concentrations/levels of molecular entanglement with respect to brain extracellular matrix. The low hyaluronic acid concentration model ECMs can be expected to mimic an in vivo situation where there is substantial hyaluronic acid degradation and the high hyaluronic acid concentration was set to exceed the average hyaluronic acid concentration in brain ECM by 50%.
The different concentrations of hyaluronic acid-serum for model ECMs were prepared by mixing hyaluronic acid with MEM complete media and foetal calf serum. […]
(§1) Migration of cells from the spheroids, cell viability and the vertical position of the spheroid in the well were recorded on days 4, 7 and 16 using bright field, epifluorescence or confocal microscopy, before the samples were returned to the incubator to continue the experiment.

U87 cells = conditions: different trientine concentrations in phosphate-buffered saline
Method: FIG. 6: A. Optical images showing the effect of crosslinking 3D model brain ECM ionically with 5, 10 and 20 mM trientine on the migration of glioblastoma U87 cells from tumour spheroids compared to controls with no trientine crosslinking. […] B. Quantification of the extent of cancer cell migration in the 3D model brain ECM with addition of different trientine concentrations. C.

U87 GBM cells [2] = system: U87 GBM cells
Method: Calcein AM (acetoxymethyl), a non-fluorescent ester derivative of the fluorescent calcein dye, was used to determine the viability and integrity of spheroids. Spheroids were soaked in 1 uM calcein-AM in live cell imaging buffer for 45 minutes in a humidified 5% CO2 incubator. After incubation, the calcein-AM solution was removed, spheroids were washed three times with PBS and transferred with 50 μl of media to the top of hyaluronic acid-serum gels in chamber slide wells prepared as above. In controls, spheroids were placed into the wells with 300 μl of MEM complete supplemented medium.
as §1

[3] = system: K7M2 mouse osteosarcoma cell line; experiment: Invasion of K7M2 osteosarcoma tumour spheroids into 3D 1.5 mg/ml collagen-medium model ECM; type: cell-based; conditions: monitored for 14 days
Method: Bone extracellular matrix consists primarily of calcified collagen type I. Calcification is invariably disrupted around metastasizing osteosarcoma tumours, allowing tumour cells to migrate through the extracellular matrix. Thus, we chose to model the bone/osteosarcoma extracellular matrix with a 3D 1.5 mg/ml collagen gel. This concentration of collagen gel promoted invasion by the K7M2 mouse osteosarcoma cell line (FIG. 9).
Collagen gels (1.5 mg/ml) in DMEM complete medium as model bone extracellular matrix was prepared from a stock 5 wt % collagen gel (IBIDI, Germany). K7M2 cells were cultured in DMEM complete medium supplemented with 10% foetal calf serum, antibiotics, and pyruvate. The cultures were maintained in T-75 cm^2 culture flasks and incubated at 37° C. and 5% CO2 in a humidified incubator. At 70% confluence, cells were detached from the surface of the flasks after incubating for 2 min at room temperature with 4 ml of trypsin-EDTA. The cell suspension was then centrifuged at 1400 rpm for 5 min at room temperature to pellet the cells. […]
Cell invasion was monitored for 14 days (FIG. 10). […]

[4] = cited from earlier work

With `NCCNCCNCCN` [trientine] the “cell migration from U87 tumour spheroids” value (U87 GBM cells [1]) was “inhibited in a trientine-concentration dependent manner; also recorded: clearly inhibited” and the “toxicity to U87 cells (live/dead cell analysis)” value (U87 cells) was “non-toxic to U87 cells”.

With `Cc1cc2nc3c(=O)[nH]c(=O)nc-3n(C[C@H](O)[C@H](O)[C@H](O)CO)c2cc1C` [riboflavin] the “cell metabolic activity (calcein-AM staining)” value (U87 GBM cells [2]) was “remained metabolically active”.

In the case of `COC(=O)C1=CO[C@@H](O)[C@@H]2C(CO)=CC[C@H]12` [genipin], the “cell invasion of model collagen extracellular matrix” value ([3]; 0.05 wt % genipin in 1.5 mg/ml collagen gel) is listed as “only minimal invasion”, the “cell invasion of model collagen extracellular matrix” value ([3]; 0.3 wt % genipin in 1.5 mg/ml collagen gel) is listed as “no observable cell invasion” and the acute toxicity ([4]; literature statement) is listed as “low acute toxicity”. For the same compound, the LD50 ([4]; mouse, in vivo, iv) was 153 mg/kg.
